Experiment [1] concerns OR71a. More on the design: method as in earlier work. The settings on record: DoOR database value, ref DoOR, cited from earlier work.
Experiment [2] addresses T1, Drosophila OR85b (Drosophila melanogaster, UniProt Q9VHQ7).
T1 construct: expressed in transfected cells
T1 sequence (Q9VHQ7 1-390): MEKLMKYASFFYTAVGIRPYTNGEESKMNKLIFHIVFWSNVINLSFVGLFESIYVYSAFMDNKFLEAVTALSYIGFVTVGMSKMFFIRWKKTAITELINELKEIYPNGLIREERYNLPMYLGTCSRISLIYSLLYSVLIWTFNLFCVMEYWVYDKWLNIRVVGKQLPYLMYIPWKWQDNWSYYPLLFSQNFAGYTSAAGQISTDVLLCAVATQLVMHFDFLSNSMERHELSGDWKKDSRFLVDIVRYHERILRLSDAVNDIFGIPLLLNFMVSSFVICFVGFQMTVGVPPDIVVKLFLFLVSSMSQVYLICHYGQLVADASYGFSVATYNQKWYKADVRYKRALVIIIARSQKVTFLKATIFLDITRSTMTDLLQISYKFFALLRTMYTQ
T1 sequence (Q9VNB5 1-486 partner): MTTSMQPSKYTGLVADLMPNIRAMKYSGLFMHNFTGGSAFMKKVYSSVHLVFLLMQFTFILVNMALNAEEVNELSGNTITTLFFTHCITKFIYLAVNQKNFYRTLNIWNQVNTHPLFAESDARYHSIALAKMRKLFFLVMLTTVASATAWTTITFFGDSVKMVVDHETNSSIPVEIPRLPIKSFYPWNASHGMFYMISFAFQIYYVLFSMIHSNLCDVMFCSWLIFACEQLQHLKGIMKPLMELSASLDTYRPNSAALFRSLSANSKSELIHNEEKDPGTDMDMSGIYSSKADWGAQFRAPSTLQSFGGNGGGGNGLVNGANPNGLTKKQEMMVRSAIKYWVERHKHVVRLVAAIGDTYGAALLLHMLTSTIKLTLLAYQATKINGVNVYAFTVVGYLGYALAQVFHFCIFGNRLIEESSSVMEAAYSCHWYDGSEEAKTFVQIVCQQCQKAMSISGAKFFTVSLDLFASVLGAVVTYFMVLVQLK
Description: cell-based. On the set-up: GCaMP6 calcium fluorescence in stable HEK293 OR+ORCO lines; peak dF normalised to 50 uM VUAA1 (=1). The settings on record: relative to 50 uM VUAA1 response, below 0.05 set to 0; for activity at 100 µM / activity at 1 µM / activity at 10 µM: HEK293, read-out: % activation; for % activation: agonist. The method, then:
(§1) Twelve thousand to 18,000 cells were plated into each well of a black wall, transparent bottom 384-well microplate (Greiner) 48 h or 72 h before the measurements and were simultaneously treated with 1 μg/mL doxycycline. […] The plate has 24 columns, thus we could record responses in up to eight different cell lines in each plate. On the day of the experiment, the growth medium was replaced with 20 µL assay buffer/well (140 mM NaCl, 5 mM KCl, 2 mM CaCl2, 1 mM MgCl2, 5 mM HEPES-Na, 20 mM glucose, pH 7.3, 340 mOsm). […] Baseline fluorescence (F0) was recorded for 5 s, after which 7 µL VOC buffer (140 mM NaCl, 5 mM KCl, 2 mM CaCl2, 1 mM MgCl2, 5 mM HEPES-Na, 31 mM glucose, 0.1% DMSO, pH 7.3, 340 mOsm) was injected into each well in one row and the fluorescence response was recorded for an additional 30 s, at a rate of one read/sec. VOC solutions (VOC buffer with 4× concentration of the final measured VOC concentration, 9 µL/well was injected) were measured on the same wells in a second round with the same protocol. Each individual concentration of a specific VOC sample was recorded in three wells for the same cell line on the same microplate. The raw data were exported in xls file format, F0 and FMAX values, and the fluorescence intensity changes (∆F) were calculated in Excel (Microsoft) (Supplementary file Data summary.xlsx) using the following equation: ΔF=FMAX-F0/F0 (see also Fig. 1C). On each plate, we recorded the response of each cell line to 50 µM VUAA1. The average of these ∆F values of each cell line were used to calculate the VUAA1-normalized values for the rest of the plate, by dividing VOC response ∆F values by the average VUAA1 response ∆F value of the corresponding OR cell line. Each VOC-OR combination was measured three times as tec The recorded FMAX, F0, ∆F, VUAA1-normalized ∆F values, as well as the OR name, the name of the tested sample, and the final concentration for each well were copied into supplementary file Data summary.xlsx, that was used to summarize all the plates recorded. Here, the averages of the measurements were calculated for each receptor-VOC-concentration combination. […] Each VOC was measured at 1, 10, and 100 µM final concentration on each receptor. VUAA1-normalized response was calculated as described in methods.

For experiment [3], the target named is T2, Drosophila OR71a (Drosophila melanogaster, UniProt Q9VUK5).
T2 construct: expressed in transfected cells
T2 sequence (Q9VUK5 1-378): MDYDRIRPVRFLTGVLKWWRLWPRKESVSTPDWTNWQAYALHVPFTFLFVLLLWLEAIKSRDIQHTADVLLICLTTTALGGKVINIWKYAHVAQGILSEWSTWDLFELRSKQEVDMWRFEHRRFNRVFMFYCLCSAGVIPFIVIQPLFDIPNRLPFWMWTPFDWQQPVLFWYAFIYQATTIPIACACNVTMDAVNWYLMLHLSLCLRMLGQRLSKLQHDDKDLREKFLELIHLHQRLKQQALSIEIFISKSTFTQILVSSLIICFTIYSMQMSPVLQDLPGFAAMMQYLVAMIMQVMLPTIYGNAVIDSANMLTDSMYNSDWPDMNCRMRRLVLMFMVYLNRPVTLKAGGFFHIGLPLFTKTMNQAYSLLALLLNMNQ
T2 sequence (Q9VNB5 1-486 partner): T1 sequence (Q9VNB5 1-486 partner)
Kind of experiment: cell-based. On the set-up: GCaMP6 calcium fluorescence in stable HEK293 OR+ORCO lines; peak dF normalised to 50 uM VUAA1 (=1). The settings on record: HEK293; relative to 50 uM VUAA1 response; below 0.05 set to 0; read-out: % activation. The method, then:
as §1

Experiment [4] has as its target T3, Drosophila OR49b (Drosophila melanogaster, UniProt Q9V6H2).
T3 construct: expressed in transfected cells
T3 sequence (Q9V6H2 1-375): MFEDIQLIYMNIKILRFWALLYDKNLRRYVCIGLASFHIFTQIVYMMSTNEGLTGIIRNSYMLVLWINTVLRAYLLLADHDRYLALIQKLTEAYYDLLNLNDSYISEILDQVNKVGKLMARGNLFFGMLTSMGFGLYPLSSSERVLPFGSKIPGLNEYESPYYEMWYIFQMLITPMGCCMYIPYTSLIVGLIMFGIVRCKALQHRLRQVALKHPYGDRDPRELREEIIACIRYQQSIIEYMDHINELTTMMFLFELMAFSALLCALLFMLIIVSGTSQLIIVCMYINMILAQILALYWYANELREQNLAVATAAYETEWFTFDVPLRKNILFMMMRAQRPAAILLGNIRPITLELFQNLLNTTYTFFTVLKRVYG
T3 sequence (Q9VNB5 1-486 partner): T1 sequence (Q9VNB5 1-486 partner)
Description: cell-based. On the set-up: GCaMP6 calcium fluorescence in stable HEK293 OR+ORCO lines; peak dF normalised to 50 uM VUAA1 (=1). The settings on record: HEK293; relative to 50 uM VUAA1 response; below 0.05 set to 0; read-out: % activation. Here is the method:
as §1

Where two headings read alike, the source gives them in different places.

As for `CCCC(=O)OCC` [ethyl butyrate], the “OR71a DoOR response” value in experiment [1] was 0.046.

As for `C=CC(C)(O)CCC=C(C)C` (stereo not shown) [linalool], the activity at 100 µM in experiment [2] is 6.3%.

Take `O=Cc1ccccc1` [benzaldehyde]: the “OR71a DoOR response” value in experiment [1] is given as 0.025.

Regarding `Cc1ccc(O)cc1` [4-methylphenol], the “OR71a DoOR response” value in experiment [1] is 0.64.

`COC(=O)c1ccccc1O` [methyl salicylate]: the “OR71a DoOR response” value in experiment [1] (OR71a) is 0.47. The activity at 100 µM in experiment [3] amounted to 11.5%.

For `C=C1CCC2(C(C)C)CC12` (stereo not shown) [sabinene], in experiment [2], the activity at 1 µM was 6.47% and the activity at 100 µM is 8.7%.

For `CCCCCC(C)=O` [2-heptanone], the “OR71a DoOR response” value in experiment [1] is 0.045.

With `CCCOC(C)=O` [propyl acetate], the “OR71a DoOR response” value in experiment [1] (OR71a) is on record as 0.04. Moreover, in experiment [2], the activity at 1 µM is 5.38%.

Turning to `C=C1CC[C@@]23C[C@@H]1C(C)(C)[C@@H]2CC[C@H]3C` [(+)-beta-cedrene], in experiment [4], the activity at 1 µM was determined as 0%, the activity at 10 µM worked out at 0% and the activity at 100 µM was determined as 0%. For the same compound, in experiment [3], the activity at 1 µM came to 0%, the activity at 10 µM came to 0% and the activity at 100 µM came out at 0%. In experiment [2], the activity at 1 µM worked out at 0%, the activity at 10 µM worked out at 0% and the activity at 100 µM worked out at 0%.

As for `C=C(C)[C@H]1CC=C(C)CC1` [(R)-(+)-limonene], the activity at 1 µM in experiment [4] and in experiment [3] was 0% in each case. Besides, the activity at 10 µM in experiment [4] and in experiment [3] was 0% throughout. For the same compound, the activity at 100 µM in experiment [4] and in experiment [3] was 0% in each case. Moreover, the “% activation” value in experiment [2] (10 µM, 10 / OR85b) came to 0%; in experiment [2] (100 µM, 100 / OR85b), 0%; in experiment [2] (1 / OR85b, 1 µM) it was 0%.

Consider `CCCCCC(=O)CC` [3-octanone], for which the “OR71a DoOR response” value in experiment [1] was 0.016.

For the compound `Cc1ccc(C)cc1` [p-xylene], in experiment [3], the activity at 10 µM was 6.15%. In addition, in experiment [2], the activity at 10 µM is 15.2% and the activity at 100 µM came out at 6.07%.

On to `CC(C)=CCC/C(C)=C/CC/C(C)=C/CO` [e,e-farnesol], for which the “OR71a DoOR response” value in experiment [1] is given as 0.11.

In the case of `CCCCCCCCCCCCCC` [tetradecane], the values for the activity at 1 µM in experiment [4] and in experiment [2] were 6.86% and 9.72%, respectively. Also, the activity at 10 µM is 5.2% in experiment [4] and 8.44% in experiment [2].

As for `C=CCc1ccc(O)c(OC)c1` [eugenol], the “OR71a DoOR response” value in experiment [1] is 0.73.

Regarding `COC(=O)c1ccccc1` [methyl benzoate], the “OR71a DoOR response” value in experiment [1] (OR71a) was 0.28. In addition, the activity at 1 µM in experiment [4] was 13.4%.

For `CCOC(=O)c1ccccc1` [ethyl benzoate], the “OR71a DoOR response” value in experiment [1] was 0.19.

Take `CC/C=C\CCOC(C)=O` [Z-3-hexenyl acetate]: the activity at 1 µM in experiment [2] turned out to be 14.5%.

Take `Cc1cccc(C)c1` [m-xylene]: the activity at 100 µM in experiment [2] came to 8.8%.

Take `CC1=CC[C@@H](C(C)(C)O)CC1` [alpha-terpineol]: the “OR71a DoOR response” value in experiment [1] is reported as 0.008.

On to `Cc1ccc(C(C)C)cc1` [p-cymene], for which, in experiment [1] (OR71a), the “OR71a DoOR response” value is listed as 0.063. For the same compound, in experiment [2], the activity at 10 µM worked out at 11.7% and the activity at 100 µM was 9.05%.

On to `CC(=O)c1ccccc1` [acetophenone], for which the “OR71a DoOR response” value in experiment [1] is 0.05.

Take `CCCCCC(O)CC` (stereo not shown) [3-octanol]: in experiment [1], the “OR71a DoOR response” value is 0.01.

On to `C=CC(O)CCCCC` (stereo not shown) [1-octen-3-ol], for which the “OR71a DoOR response” value in experiment [1] is given as 0.09.

In the case of `CC1=CCC2CC1C2(C)C` (stereo not drawn) [alpha-pinene], in experiment [1], the “OR71a DoOR response” value is listed as 0.04.

For the compound `C=C(C)C1CCC2(C)OC2C1` (single isomer, unassigned; (+)) [(+)-limonene oxide], in experiment [4], the activity at 1 µM was 0%, the activity at 10 µM worked out at 0% and the activity at 100 µM is 0%. In experiment [3], the activity at 1 µM was 0%, the activity at 10 µM was 0% and the activity at 100 µM came out at 0%. Besides, in experiment [2], the activity at 1 µM is 0%, the activity at 10 µM came out at 0% and the activity at 100 µM amounted to 0%.

For `C=C(C)[C@H]1CC=C(C)CC1` [limonene], the “% activation” value in experiment [2] (10 µM, 10 / OR85b) is recorded as 0.08814%; in experiment [2] (100 µM, 100 / OR85b) it was 0.06443%; in experiment [2] (1 / OR85b, 1 µM), 0.07022%.

Turning to `C=C1[C@H]2CC[C@@H]3[C@H]2C(C)(C)CCC[C@]13C` [(+)-longifolene], in experiment [4], the activity at 1 µM was 7.75%, the activity at 10 µM was 0% and the activity at 100 µM came out at 0%. Besides, in experiment [3], the activity at 1 µM is 0%, the activity at 10 µM worked out at 0% and the activity at 100 µM was found to be 0%. In addition, in experiment [2], the activity at 1 µM turned out to be 8.34%, the activity at 10 µM is 10.9% and the activity at 100 µM is 0%.

As to `Cc1ccccc1C` [o-xylene], in experiment [2], the activity at 1 µM turned out to be 8.04% and the activity at 100 µM was 8.27%.

Consider `CC(=O)OCCC(C)C` [isopentyl acetate], for which, in experiment [1], the “OR71a DoOR response” value is recorded as 0.03.

With `CCCCCOC(C)=O` [pentyl acetate], the activity at 1 µM in experiment [4] amounted to 7.95%. In addition, the activity at 100 µM was 6.1% in experiment [4] and 8.7% in experiment [3].
